Data on six molecules can be found in ChEMBL document CHEMBL1135082, “Benzylidene rhodanines as novel inhibitors of UDP-N-acetylmuramate/L-alanine ligase” (Bioorg Med Chem Lett, 2002).

Converted amounts (≈) assume the structure as drawn.

One assay concerns Staphylococcus aureus. The assay is described as follows: The whole cell inhibitory activity was evaluated against Gram-positive methicillin-resistant Staphylococcus aureus (MRSA). The class given is functional.
Assay [1] relates to CHO. As to the kind of experiment: Cytotoxic effect at mammalian Chinese hamster ovary (CHO) cells; Toxic. The format is functional, cell-based. Conditions: Cricetulus griseus.
For a further assay, the system named is Escherichia coli. As to the kind of experiment: The whole cell inhibitory activity was evaluated against the Gram-negative Escherichia coli; Not active. The format is functional.
A short description of assay [2]: Inhibitory concentration against recombinant UDP-N-Acetylmuramate/L-Alanine Ligase (MurC) enzyme.
Assay [3] has as its system CHO. The assay is described as follows: Cytotoxic effect at mammalian Chinese hamster ovary (CHO) cells. The class given is functional, cell-based. Conditions: Cricetulus griseus.

Take `O=C1NC(=S)S/C1=C/c1cc([N+](=O)[O-])ccc1SCc1ccc(Cl)cc1`: the figures for the MIC against Staphylococcus aureus and in the assay with Escherichia coli were 31 µM (≈ 13.1 µg/mL) and above 65 µM, respectively. For the same molecule, the IC50 in the assay with CHO [1] was found to be 29 µM; in assay [2], 27 µM.
`O=C1NC(=S)S/C1=C\c1cccc(Oc2ccccc2)c1`: the MIC against Staphylococcus aureus was 79 µM (≈ 24.8 µg/mL); against Escherichia coli, above 87 µM. Moreover, the values for the IC50 (in the assay with CHO [3]; in assay [2]) were above 96 µM and 22 µM, respectively.
On to `O=C1NC(=S)S/C1=C\c1cc([N+](=O)[O-])ccc1Oc1ccc(Cl)cc1`, for which the MIC in the assay on Staphylococcus aureus and with Escherichia coli was above 76 µM each time. For the same molecule, the IC50 in assay [2] came out at 24 µM.
Turning to `O=C1NC(=S)S/C1=C\c1cc(OCc2ccccc2)cc(OCc2ccccc2)c1`, the MIC in the assay with Staphylococcus aureus and against Escherichia coli was above 69 µM each time. For the same molecule, in assay [2], the IC50 came to 12 µM.
For the molecule `O=C1NC(=S)S/C1=C\c1cc([N+](=O)[O-])ccc1Sc1ccc(Cl)cc1`, the minimal inhibitory concentration (MIC) is 70 µM (≈ 28.6 µg/mL) against Staphylococcus aureus and above 87 µM against Escherichia coli. For the same molecule, the values for the IC50 (in the assay with CHO [3]; in assay [2]) were above 73 µM and 24 µM, respectively.
As to `O=C1NC(=S)S/C1=C\c1ccc(/C=C/c2ccccc2)cc1`, the MIC with Staphylococcus aureus and with Escherichia coli was above 93 µM in each case. In addition, the IC50 in assay [2] was found to be 18 µM.
